Data: patent US10551313B1, “Surface plasmon resonance based mechanical sensing of beating heart cells” (The Florida International University Board of Trustees, priority 2019, dated 2020)

Test system: living cardiomyocytes
Experiment: SPR based sensing of beating (cardiac activity) of cardiomyocytes cultured on the SPR sensing surface
Type: cell-based, rat
Conditions: injection of 10 μM, SPR resonance angle shift vs time, compared with control group without injection (FIG. 5)
Text: In one particular embodiment, rat cardiomyocytes were isolated from neonatal rat hearts from day one through day three and cultured on the SPR sensing surface 100 of the SPR based sensing system. Subsequently, the spontaneous contractions, expansions, or movements of the rat cardiomyocytes under normal living conditions were monitored by using the SPR based sensing system. In an embodiment, the SPR based sensing system can sense the beating characteristics of the living cardiomyocytes after the living cardiomyocytes is stimulated by an injection of a stimulator such as, for example, adenosine triphosphate (ATP). In another embodiment, the SPR based sensing system can sense the beating characteristics of the living cardiomyocytes after the living cardiomyocytes is inhibited by an injection of an inhibitor such as, for example, blebbistatin.

Nc1ncnc2c1ncn2[C@@H]1O[C@H](COP(=O)(O)OP(=O)(O)OP(=O)(O)O)[C@@H](O)[C@H]1O [ATP, adenosine triphosphate]
cardiac activity (beating frequency) of the cardiomyocytes: higher cardiac activity (faster beats with frequencies higher than the baseline frequencies)

Cc1ccc2c(c1)C(=O)C1(O)CCN(c3ccccc3)C1=N2 (centres unmarked) [blebbistatin]
cardiac activity (beating frequency) of the cardiomyocytes: lower cardiac activity (slower beats with frequencies lower than the baseline frequencies)
